According to the supplement of paper PMC5908809:

Key:
[1] = system: normal NK cells expanded with K562-aAPC; assay: percent inhibition of viability; higher = more inhibition; conditions: 72 h, IL-2 2.5 ng/mL
Method: (§1)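 Drug sensitivity and resistance testing on K562-aAPC-expanded normal NK cells: 5 concentrations (10-fold steps over a 10,000-fold range), 72 h at 37 °C, viability by CellTiter-Glo normalised to DMSO and benzethonium chloride controls; DSS from the fitted curve.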

DERL-7 (IL-2 2.5 ng/mL) [2] = assay: as above; conditions: 72 h
IMC-1 (IL-2 20 ng/mL) [3] = assay: as above; conditions: 72 h
KAI3 (IL-2 2.5 ng/mL) [4] = assay: as above; conditions: 72 h
KHYG-1 (IL-2 2.5 ng/mL) [5] = assay: as above; conditions: 72 h
NK-92 (IL-2 2.5 ng/mL) [6] = assay: as above; conditions: 72 h
NK-YS (IL-2 2.5 ng/mL) [7] = assay: as above; conditions: 72 h
NKL (IL-2 2.5 ng/mL) [8] = assay: as above; conditions: 72 h
SNK-6 (IL-2 2.5 ng/mL) [9] = assay: as above; conditions: 72 h
YT (IL-2 2.5 ng/mL) [10] = assay: as above; conditions: 72 h
[11] = system: normal primary NK cells, pool 1 (3 donors) (IL-2 2.5 ng/mL); assay: as above; conditions: 72 h
[12] = system: normal primary NK cells, pool 1 (3 donors), resting (IL-2 0 ng/mL); assay: as above; conditions: 72 h
[13] = system: normal primary NK cells, pool 2 (3 donors) (IL-2 2.5 ng/mL); assay: as above; conditions: 72 h
[14] = system: normal primary NK cells, pool 3 (3 donors) (IL-2 2.5 ng/mL); assay: as above; conditions: 72 h
[15] = system: normal NK cells expanded with K562-aAPC; assay: drug sensitivity score (DSS) (DSS units); higher = more sensitive; extreme values may be limits of the assay; conditions: 72 h; IL-2 2.5 ng/mL
Method: as §1

DERL-7 (IL-2 2.5 ng/mL) [16] = assay: as above; conditions: 72 h
IMC-1 (IL-2 20 ng/mL) [17] = assay: as above; conditions: 72 h
KAI3 (IL-2 2.5 ng/mL) [18] = assay: as above; conditions: 72 h
KHYG-1 (IL-2 2.5 ng/mL) [19] = assay: as above; conditions: 72 h
NK-92 (IL-2 2.5 ng/mL) [20] = assay: as above; conditions: 72 h
NK-YS (IL-2 2.5 ng/mL) [21] = assay: as above; conditions: 72 h
NKL (IL-2 2.5 ng/mL) [22] = assay: as above; conditions: 72 h
SNK-6 (IL-2 2.5 ng/mL) [23] = assay: as above; conditions: 72 h
YT (IL-2 2.5 ng/mL) [24] = assay: as above; conditions: 72 h
[25] = system: normal primary NK cells, pool 1 (3 donors) (IL-2 2.5 ng/mL); assay: as above; conditions: 72 h
[26] = system: normal primary NK cells, pool 1 (3 donors), resting (IL-2 0 ng/mL); assay: as above; conditions: 72 h
[27] = system: normal primary NK cells, pool 2 (3 donors) (IL-2 2.5 ng/mL); assay: as above; conditions: 72 h
[28] = system: normal primary NK cells, pool 3 (3 donors) (IL-2 2.5 ng/mL); assay: as above; conditions: 72 h

C[C@@H]1C[C@H]2O[C@@H]2/C=C\C=C\C(=O)Cc2c(Cl)c(O)cc(O)c2C(=O)O1 [Radicicol] (max concentration tested 10000 nM)
percent inhibition of viability [%]
Conditions | 1 nM | 10 nM | 100 nM | 1000 nM | 10000 nM
DERL-7 (IL-2 2.5 ng/mL) [2] | -0.88 | 14.3 | 79.4 | 100 | 101
IMC-1 (IL-2 20 ng/mL) [3] | -2.78 | 3.67 | 0.43 | 101 | 101
KAI3 (IL-2 2.5 ng/mL) [4] | 1.19 | 9.86 | 58.6 | 99.8 | 94.4
KHYG-1 (IL-2 2.5 ng/mL) [5] | 0.9 | 2.76 | 13.1 | 101 | 110
NK-92 (IL-2 2.5 ng/mL) [6] | -1.96 | -4.16 | 34.1 | 99.2 | 104
NK-YS (IL-2 2.5 ng/mL) [7] | 3.72 | 7.15 | 24.6 | 93.4 | 99.7
NKL (IL-2 2.5 ng/mL) [8] | -1.4 | 4.63 | 30.1 | 85.8 | 81.6
SNK-6 (IL-2 2.5 ng/mL) [9] | 8 | 13.2 | 49.9 | 96.8 | 78.6
YT (IL-2 2.5 ng/mL) [10] | -1.95 | 7.65 | 16.1 | 64.4 | 91.6
[1] | -4.44 | 1.88 | 51 | 98.6 | 80.6
[11] | 5.96 | -3.33 | 44.2 | 80.8 | 94.1
[12] | 9.89 | -3.46 | 22.4 | 41.1 | 75.4
[13] | -13.3 | -1.53 | 60.7 | 82 | 91.3
[14] | -8.94 | -10.4 | 38 | 82.1 | 91.5

Conditions | drug sensitivity score
DERL-7 (IL-2 2.5 ng/mL) [16] | 28.9
IMC-1 (IL-2 20 ng/mL) [17] | 18.1
KAI3 (IL-2 2.5 ng/mL) [18] | 25.1
KHYG-1 (IL-2 2.5 ng/mL) [19] | 20.2
NK-92 (IL-2 2.5 ng/mL) [20] | 22.8
NK-YS (IL-2 2.5 ng/mL) [21] | 20
NKL (IL-2 2.5 ng/mL) [22] | 19.4
SNK-6 (IL-2 2.5 ng/mL) [23] | 23.3
YT (IL-2 2.5 ng/mL) [24] | 14.2
[15] | 23.9
[25] | 20.8
[26] | 10.6
[27] | 23.6
[28] | 20.5
